Earlier results on 1 compound are cited in patent US9273049B2 (North-West University, priority 2009, dated 2016).

For this series the following is noted: Class II = high permeability, low solubility.

The structures appear in SMILES notation.

For the compound `Cc1ccnc2c1NC(=O)c1cccnc1N2C1CC1` [nevirapine, 11-cyclopropyl1-5,11-dihydro-4-methyl-6H-dipyrido[3,2-b: 2′,3′-e][1,4]diazepin-6-one], the FDA classification entry is “Class II”.
